The text below walks through data of PMC8304610, “Discovery of Novel 2,4-Dianilinopyrimidine Derivatives Containing 4-(Morpholinomethyl)phenyl and N-Substituted Benzamides as Potential FAK Inhibitors and Anticancer Agents” (Molecules, 2021).

By IC50 is commonly meant the midpoint of a concentration-inhibition curve. The term melting point denotes the temperature of the solid-liquid transition.

For data set [1], the target named is T1, FAK kinase (Homo sapiens, UniProt Q05397).
T1 construct: purchased Promega Corporation V9301
Kind of data set: ADP-Glo kinase enzymatic assay. Type of data set: biochemical. The conditions noted are these: mean ± SD of three independent experiments. The procedure: The ADP-Glo™ Kinase Assay Kit and FAK Kinase Enzyme (Catalog. V9301) were purchased from Promega Corporation (Madison, WI, USA). The experiments were performed according to the detailed and complete protocols of the manufacturer. Briefly, the concentration of FAK determined by optimization experiments was 0.1 μg/μL. Suitable concentration gradients from 1.6 to 1000 nM were set for all the tested compounds. A kinase reaction buffer, a substrate/ATP mixture, and a FAK solution were prepared right before use. The 5 μL kinase reaction consisted of 1 μL of compound solution, 2 μL of substrate/ATP mixture, and 2 μL of FAK solution. The control without enzyme was provided by 3 μL of kinase reaction buffer and 2 μL of substrate/ATP mixture. The negative control was prepared using 1 μL of kinase reaction buffer instead of a compound solution. The kinase reactions were added to a 384-well plate and incubated at room temperature for 60 min, then 5 μL of ADP-Glo™ Reagent was added to stop the kinase reaction and deplete the unconsumed ATP, and incubated at room temperature for 40 min. After adding 10 μL of Kinase Detection Reagent, the plate was incubated at room temperature for 30 min and then luminescence was recorded (integration time 0.5–1 s) on a TriStar® LB942 Multimode Microplate Reader (BERTHOLD TECHNOLOGIES GmbH & Co. KG., Bad Wildbad, Germany). Curve fitting and data presentations were performed using GraphPad Prism version 8.0.
A general note: In ADP-Glo the light output rises with the ADP produced.

Data set [2] concerns H1975 non-small cell lung cancer (NSCLC) cells. Kind of data set: CCK-8 cell viability assay, H1975. Type of data set: cell-based. The conditions noted are these: Homo sapiens, NCI-H1975, CCK-8, 72 h, mean ± SD of three experiments, read-out: Antiproliferative Activity IC50, H1975. The procedure: (§1) The H1975 human NSCLC cell line was obtained from ATCC. A431 human epithelial carcinoma and HBE human bronchial epithelial cell lines were kind gifts from Fuheng Biological Company Ltd. (Shanghai, China) and YuXi Biotech Company (Jiangsu, China), respectively. The cells were maintained in RPMI 1640 or DMEM (Gibco®, Thermo Fisher Scientific Inc., Waltham, MA, USA) containing 10% fetal bovine serum (FBS, Gibco®) and 1% penicillin-streptomycin (Beyotime Company, Shanghai, China) at 37 °C in a 5% CO2 incubator.
(§2) A total of 3000 cells of H1975 or HBE and 5000 cells of A431 were seeded for each well into a 96-well plate and cultured in 10% FBS respective growth medium overnight. Various concentrations (0–20 μM) of each compound were then added in triplicate to the cells. After 72 h of incubation, 10 μL of CCK-8 solution (5.0 mg/mL, Biotool Company, Kirchberg, Switzerland) was added to each well and the cells continued to culture for 4 h. The optical density (OD) was determined at 450 nm with a microplate reader (Thermo Fisher Scientific, Waltham, MA, USA). IC50 values were calculated employing GraphPad Prism version 8.0.
On the technique in general: Tetrazolium dyes change colour on reduction, which living cells bring about.

For data set [3], the system named is A431 human epithelial carcinoma cells. Kind of data set: CCK-8 cell viability assay, A431. The conditions noted are these: A-431, CCK-8, 72 h, mean ± SD of three experiments, read-out: Antiproliferative Activity IC50, A431. Format: cell-based. The procedure:
as §1, §2

Data set [4] relates to normal human bronchial epithelial cells (HBE). In words: CCK-8 cellular selectivity assay, HBE. Type of data set: cell-based. The settings on record: for IC50: Homo sapiens, Epithelial cell, HBE normal cells, CCK-8, 72 h, mean ± SD of three experiments, read-out: Antiproliferative Activity IC50, HBE; for SI Values (selectivity index): IC50 for HBE cell line/IC50 for H1975 cell line. The procedure:
as §1, §2

The test system of data set [5] is H1975 cells. In words: Annexin V-FITC/PI flow cytometry apoptosis assay. Type of data set: cell-based, human. The settings on record: H1975, 0.1, 0.5, 1 μM, 48 h. The procedure:
(§3) H1975 cells were seeded at a density of 1 × 10^5 cells/well into 6-well plates for 24 h and then exposed to different concentrations of inhibitors for 48 h. The cells were harvested. (1) The cells were stained with Annexin V-FITC (5 µL)/propidium iodide (5 µL), and the samples were detected and flow cytometry (Becton-Dickinson, Franklin Lakes, NJ, USA) was performed to quantify the number of apoptotic cells. (2) The cells were stained with propidium iodide (PI) in the dark for 30 min, and then analyzed for cell cycle distribution by the flow cytometry assay.
A general note: A flow cytometer gives signals particle by particle.

Data set [6] deals with H1975 cells. In words: Cell cycle analysis by PI flow cytometry. Format: cell-based, human. The settings on record: 48 h. How it is done:
as §3

The subject of data set [7] is H1975 cells. In words: Scratch (cell migration) assay. Format: cell-based, human. The settings on record: H1975, 0.1, 0.5, and 1 μM, 24 h. How it is done: H1975 cells were seeded in 6-well plates and incubated for 12 h. When cells were grown to 90–100% confluency in a monolayer, wounds were generated using a pipette tip. […] The images were captured to record the status of cells near the scratch lines at the beginning and after 12 and 24 h.

In data set [8] the test system is H1975 cells. In words: AO/EB staining assay. Type of data set: cell-based, human. The settings on record: H1975, 0.1, 0.5, and 1 μM. How it is done: H1975 cells at a density of 1 × 10^5 cells/well in 6-well plates were incubated for 24 h. After discarding the original culture medium, different concentrations of inhibitors were used. The cells were incubated for 48 h and then washed with phosphate-buffered saline (PBS) three times. Cells were subsequently incubated in the dye mix containing 1.0 µg/mL of AO and 1.0 µg/mL of EB in PBS at 37 °C for 5 min, and then washed with PBS. The apoptotic, necrotic, and live cells were examined under the fluorescent inverted microscope (OLYMPUS, Tokyo, Japan).

T1 sequence (Q05397 393-698 limits assumed): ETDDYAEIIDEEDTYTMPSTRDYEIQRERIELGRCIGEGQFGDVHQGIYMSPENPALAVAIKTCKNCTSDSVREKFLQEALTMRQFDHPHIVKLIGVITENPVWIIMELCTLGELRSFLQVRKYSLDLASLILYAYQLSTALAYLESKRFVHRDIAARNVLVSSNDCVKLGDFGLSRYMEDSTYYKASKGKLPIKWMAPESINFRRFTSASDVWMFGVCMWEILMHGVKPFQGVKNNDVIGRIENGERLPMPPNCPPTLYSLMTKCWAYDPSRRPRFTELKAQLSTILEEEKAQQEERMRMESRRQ

As to `O=C(NCCO)c1ccccc1Nc1nc(Nc2ccc(CN3CCOCC3)cc2)ncc1Cl` [Compound 8a, 2-((5-Chloro-2-((4-(morpholinomethyl)phenyl)amino)pyrimidin-4-yl)amino)-N-(2-hydroxyethyl)benzamide], the IC50 in [1] is 47 ± 6 nM. For the same molecule, in [2], the IC50 turned out to be 44 ± 11 nM. Besides, the IC50 in data set [3] is 119 ± 36 nM. Further, in [4], the IC50 is 1040 ± 266 nM and the “SI Values (selectivity index)” value is recorded as 24. Further, the “Apoptosis induction (in words)” value in data set [5] is “substantially increased the extent of apoptosis in H1975 cells in a dose-dependent manner”. In data set [6] (H1975, 1.0 μM), the “%G1 (G0/G1 phase) cells” value is 39.06%, the “%G2 (G2/M phase) cells” value worked out at 37.29% and the “%S phase cells” value came to 23.65%. In addition, the “Cell cycle arrest (in words)” value in data set [6] (H1975, 0.1, 0.5, and 1 μM) is “induced cell cycle arrest in S/G2 phase in a dose-dependent manner”. Further, in data set [7], the “Cell migration (in words)” value was “reduced migration distances”. Further, the “Apoptotic morphology (in words)” value in data set [8] is “exhibited certain morphological phenomena characteristic of apoptosis”.
Regarding `O=C(NCCCCCCOc1no[n+]([O-])c1S(=O)(=O)c1ccccc1)c1ccccc1Nc1nc(Nc2ccc(CN3CCOCC3)cc2)ncc1Cl` [Compound 9g, 4-((6-(2-((5-Chloro-2-((4-(morpholinomethyl)phenyl)amino)pyrimidin-4-yl)amino)benzamido)hexyl)oxy)-3-(phenylsulfonyl)-1,2,5-oxadiazole 2-oxide], the melting point is 120 to 122 °C. The IC50 in [1] is over 1000 nM. The IC50 in [2] worked out at 592 ± 73 nM. Moreover, in data set [3], the 50% inhibitory concentration (IC50) is 617 ± 40 nM. In [4], the 50% inhibitory concentration (IC50) was 3010 ± 90 nM and the “SI Values (selectivity index)” value is listed as 5.
As to `CNC(=O)c1ccccc1Nc1nc(Nc2ccc(N3CCOCC3)cc2OC)ncc1Cl` [TAE226, reference compound], the IC50 was 141 ± 41 nM in [2], 392 ± 53 nM in data set [3] and over 20000 nM in [4]. Besides, in data set [7], the “Cell migration (in words)” value is “reduced migration distances”.
